Test results reported in PubChem BioAssay AID2060489 (Molecular Pharmacology Branch, DTP, NCI, 2025).

Tested on: 922993-354-T-J3-PDC complex spheroids, viability
Assay: Anticancer human tumor 922993-354-T-J3-PDC patient-derived endometrial carcinoma cell line growth inhibition [GQUAD]
Conditions: for IC50: curve of first compound; for viability, T/C: stronger effect = lower value
Summary of the method: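 Viability of tumor cells grown as complex spheroids with endothelial and stromal cells, exposed to drug combinations. Top concentration at or near clinical Cmax (else 10 microM), diluted in half-log increments.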

[1] = second compound 0.0316 µM, first compound 0.0316 µM
[2] = second compound 0.0316 µM, first compound 0.316 µM
[3] = second compound 0.1 µM, first compound 0.0316 µM
[4] = second compound 0.1 µM, first compound 0.316 µM
[5] = second compound 0.316 µM, first compound 0.0316 µM
[6] = second compound 0.316 µM, first compound 0.316 µM
[7] = second compound 1 µM, first compound 0.0316 µM
[8] = second compound 1 µM, first compound 0.316 µM
[9] = second compound 3.16 µM, first compound 0.0316 µM
[10] = second compound 3.16 µM, first compound 0.316 µM
[11] = second compound 10 µM, first compound 0.0316 µM
[12] = second compound 10 µM, first compound 0.316 µM
[13] = second compound 0.0316 µM, first compound 0.1 µM
[14] = second compound 0.0316 µM, first compound 1 µM
[15] = second compound 0.0316 µM, first compound 3.16 µM
[16] = second compound 0.0316 µM, first compound 10 µM
[17] = second compound 0.1 µM, first compound 0.1 µM
[18] = second compound 0.1 µM, first compound 1 µM
[19] = second compound 0.1 µM, first compound 3.16 µM
[20] = second compound 0.1 µM, first compound 10 µM
[21] = second compound 0.316 µM, first compound 0.1 µM
[22] = second compound 0.316 µM, first compound 1 µM
[23] = second compound 0.316 µM, first compound 3.16 µM
[24] = second compound 0.316 µM, first compound 10 µM
[25] = second compound 1 µM, first compound 0.1 µM
[26] = second compound 1 µM, first compound 1 µM
[27] = second compound 1 µM, first compound 3.16 µM
[28] = second compound 1 µM, first compound 10 µM
[29] = second compound 3.16 µM, first compound 0.1 µM
[30] = second compound 3.16 µM, first compound 1 µM
[31] = second compound 3.16 µM, first compound 3.16 µM
[32] = second compound 3.16 µM, first compound 10 µM
[33] = second compound 10 µM, first compound 0.1 µM
[34] = second compound 10 µM, first compound 1 µM
[35] = second compound 10 µM, first compound 3.16 µM
[36] = second compound 10 µM, first compound 10 µM
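Further: spheroids exposed to compounds for seven days.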
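Wherever viability, T/C is given: 100% = DMSO vehicle control viability.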

CC[C@@]1(O)C(=O)OCc2c1cc1n(c2=O)Cc2cc3c(CN(C)C)c(O)ccc3nc2-1 + CN(C)c1ccc(Nc2c3ccc(NC(=O)CCN4CCCC4)cc3nc3cc(NC(=O)CCN4CCCC4)ccc23)cc1
IC50 (second compound 0.0316 µM): 0.279 µM
IC50 (second compound 0.1 µM): > 0.316 µM
IC50 (second compound 0.316 µM): 0.286 µM
IC50 (second compound 1 µM): 0.265 µM
IC50 (second compound 3.16 µM): 0.302 µM
IC50 (second compound 10 µM): > 0.316 µM
viability, T/C (second compound 0.0316 µM, first compound 0.000999 µM): 100%
viability, T/C (second compound 0.0316 µM, first compound 0.00316 µM): 74.3%
viability, T/C (second compound 0.0316 µM, first compound 0.00999 µM): 99.8%
viability, T/C [1]: 91.9%
viability, T/C (second compound 0.0316 µM, first compound 0.0999 µM): 77.3%
viability, T/C [2]: 46.6%
viability, T/C (second compound 0.1 µM, first compound 0.000999 µM): 120%
viability, T/C (second compound 0.1 µM, first compound 0.00316 µM): 110%
viability, T/C (second compound 0.1 µM, first compound 0.00999 µM): 89.3%
viability, T/C [3]: 82.7%
viability, T/C (second compound 0.1 µM, first compound 0.0999 µM): 88.9%
viability, T/C [4]: 43.4%
viability, T/C (second compound 0.316 µM, first compound 0.000999 µM): 90.5%
viability, T/C (second compound 0.316 µM, first compound 0.00316 µM): 98.4%
viability, T/C (second compound 0.316 µM, first compound 0.00999 µM): 79.2%
viability, T/C [5]: 84%
viability, T/C (second compound 0.316 µM, first compound 0.0999 µM): 92.5%
viability, T/C [6]: 46.2%
viability, T/C (second compound 1 µM, first compound 0.000999 µM): 100%
viability, T/C (second compound 1 µM, first compound 0.00316 µM): 106%
viability, T/C (second compound 1 µM, first compound 0.00999 µM): 97.7%
viability, T/C [7]: 94.5%
viability, T/C (second compound 1 µM, first compound 0.0999 µM): 76.8%
viability, T/C [8]: 45.1%
viability, T/C (second compound 3.16 µM, first compound 0.000999 µM): 101%
viability, T/C (second compound 3.16 µM, first compound 0.00316 µM): 109%
viability, T/C (second compound 3.16 µM, first compound 0.00999 µM): 99.6%
viability, T/C [9]: 117%
viability, T/C (second compound 3.16 µM, first compound 0.0999 µM): 115%
viability, T/C [10]: 47.6%
viability, T/C (second compound 10 µM, first compound 0.000999 µM): 109%
viability, T/C (second compound 10 µM, first compound 0.00316 µM): 115%
viability, T/C (second compound 10 µM, first compound 0.00999 µM): 110%
viability, T/C [11]: 97.3%
viability, T/C (second compound 10 µM, first compound 0.0999 µM): 115%
viability, T/C [12]: 59.4%

C=CC(=O)N1CCN(c2nc(=O)n(-c3c(C)ccnc3C(C)C)c3nc(-c4c(O)cccc4F)c(F)cc23)C(C)C1 (stereo unspecified) + Cc1cnc(CNC(=O)c2c(=O)c3ccc(N4CCCN(C)CC4)nc3n3c2sc2ccccc23)cn1
IC50 (second compound 0.0316 µM): > 10 µM
IC50 (second compound 0.1 µM): > 10 µM
IC50 (second compound 0.316 µM): > 10 µM
IC50 (second compound 1 µM): > 10 µM
IC50 (second compound 3.16 µM): > 10 µM
IC50 (second compound 10 µM): 0.0316 µM
viability, T/C [1]: 109%
viability, T/C [13]: 89.1%
viability, T/C [2]: 79.2%
viability, T/C [14]: 99.5%
viability, T/C [15]: 80.4%
viability, T/C [16]: 100%
viability, T/C [3]: 71.2%
viability, T/C [17]: 73.2%
viability, T/C [4]: 52.8%
viability, T/C [18]: 67%
viability, T/C [19]: 77.2%
viability, T/C [20]: 53.9%
viability, T/C [5]: 49.1%
viability, T/C [21]: 57.5%
viability, T/C [6]: 51.8%
viability, T/C [22]: 53.1%
viability, T/C [23]: 55.1%
viability, T/C [24]: 61.9%
viability, T/C [7]: 55.2%
viability, T/C [25]: 61.1%
viability, T/C [8]: 46.9%
viability, T/C [26]: 47.7%
viability, T/C [27]: 53.8%
viability, T/C [28]: 55.1%
viability, T/C [9]: 53.9%
viability, T/C [29]: 55.9%
viability, T/C [10]: 55.4%
viability, T/C [30]: 51.3%
viability, T/C [31]: 65.7%
viability, T/C [32]: 53.7%
viability, T/C [11]: 52.5%
viability, T/C [33]: 58.1%
viability, T/C [12]: 53.2%
viability, T/C [34]: 46%
viability, T/C [35]: 64%
viability, T/C [36]: 70%

CC(C)(O)C1CCC(Nc2ccc3ncc(-c4cccc(C(F)(F)F)c4)n3n2)CC1 (stereo unspecified) + Cc1cnc(CNC(=O)c2c(=O)c3ccc(N4CCCN(C)CC4)nc3n3c2sc2ccccc23)cn1
IC50 (second compound 0.0316 µM): > 10 µM
IC50 (second compound 0.1 µM): > 10 µM
IC50 (second compound 0.316 µM): 0.0316 µM
IC50 (second compound 1 µM): < 0.0316 µM
IC50 (second compound 3.16 µM): < 0.0316 µM
IC50 (second compound 10 µM): < 0.0316 µM
viability, T/C [1]: 89.5%
viability, T/C [13]: 97.4%
viability, T/C [2]: 67.9%
viability, T/C [14]: 90.6%
viability, T/C [15]: 105%
viability, T/C [16]: 84.1%
viability, T/C [3]: 69%
viability, T/C [17]: 71.9%
viability, T/C [4]: 51.2%
viability, T/C [18]: 59.6%
viability, T/C [19]: 65.8%
viability, T/C [20]: 67.6%
viability, T/C [5]: 48.6%
viability, T/C [21]: 58.8%
viability, T/C [6]: 48.4%
viability, T/C [22]: 47.5%
viability, T/C [23]: 65.9%
viability, T/C [24]: 58.2%
viability, T/C [7]: 47.8%
viability, T/C [25]: 51.8%
viability, T/C [8]: 40.4%
viability, T/C [26]: 53.1%
viability, T/C [27]: 57.4%
viability, T/C [28]: 54.8%
viability, T/C [9]: 40.7%
viability, T/C [29]: 43.9%
viability, T/C [10]: 38.8%
viability, T/C [30]: 47.4%
viability, T/C [31]: 41.4%
viability, T/C [32]: 37.5%
viability, T/C [11]: 36.7%
viability, T/C [33]: 47.4%
viability, T/C [12]: 31%
viability, T/C [34]: 18.5%
viability, T/C [35]: 9.55%
viability, T/C [36]: 4.71%
